Like-named read-outs stand apart in the source and are kept apart here.
Assays:
aldosterone synthesis = assay: Pharmacodynamic test in cynomolgus monkeys with ACTH stimulation: aldosterone in plasma; format: in vivo, cynomolgus monkeys (Macaca fascicularis)
Excerpt: (§1) Adult cynomolgus monkeys (Macaca fascicularis) with suitable body weight and age were selected. 1 male and 1 female cynomolgus monkeys were used for experiment. The adaptation period was 1 week. On the day of the experiment, monkeys were individually housed in stainless steel mesh cages for testing.
(§2) Oral treatment and ACTH working solution (working solution diluted to the desired concentration in PBS sterile solution by ultrapure water filtration through a 0.22 μm filter using Tetracosactrin (HY-P0060, MCE)) were administered as follows: • T=0, 2 monkeys in each group were orally administered 0.5 mg/kg (compound was suspended in 5% aqueous sodium hydroxymethylcellulose solution as vehicle) in a fixed volume of 2 mL/kg; • T=+1 hour (i.e., 1 hour after administration), 14.5 μg/kg of the aforementioned ACTH working solution was injected intramuscularly.
(§3) Sampling test: Blood samples (collected in EDTA anticoagulant tubes) were collected before oral administration (Pre-dose) and 0.5 h, 1 h, 2 h, 4 h, 6 h and 12 h after administration for cortisol concentration measurement in plasma. The blood was centrifuged at 10000 rpm for 15 minutes at 4° C., followed by separation of the plasma and uniform storage at −80° C. for further analysis using an Roche biochemical analyzer to detect aldosterone and cortisol in plasma, and a portion of the plasma (0.5 h, 1 h, 2 h, 4 h, 6 h, and 12 h after administration, and an additional blood collection after 24 h) was taken simultaneously to determine the pharmacokinetic parameters by LC/MS.
(§4) The above experiment was repeated except that: T=0, two monkeys in each group were orally administered at a dose of 0.05 mg/kg (compound was suspended in 5% aqueous sodium hydroxymethylcellulose as vehicle) in a fixed volume of 2 mL/kg.

CYP2C19 = CYP2C19 (Homo sapiens (Human), UniProt P33261); assay: In vitro inhibitory activity against common CYP450 enzymes: CYP2C19; format: in vitro ADME; conditions: microsomes, substrate (S)-(+)-Mephenytoin
Description: (§5) A working solution of the test compound was prepared in a solvent of dimethyl sulfoxide (DMSO) (starting at a final concentration of 50 μM, 3-fold dilution of 7 concentration points). The corresponding microsomes (CORNING, Cat No.452117) and the corresponding substrate solution were prepared (components were shown in Table 2). The working solution of the test compound and the corresponding microsomes were mixed with the corresponding substrate solution and the HLM working solution. The mixture was preheated in a 37.0° C. water bath for 10 min. NADPH cofactor (BONTAC, Cat No.BT04) was added. The resultant mixture was incubated for 10 min in a 37.0° C. water bath. The reaction was terminated by adding cold stop solution. [table] [table] The sample was centrifuged at 4000 rpm for 20 min to precipitate protein and the supernatant was transferred to HPLC water and shaken for 10 min.

human CYP11B1 = human CYP11B1 (Homo sapiens (Human), UniProt P15538); assay: Inhibitory activity against hCYP11B1 in G-402 CYP11B1 high expression stable transformants (cortisol HTRF); format: cell-based; conditions: G-402 CYP11B1 cells, 0.2 μM 11-deoxycortisol, 16 hours; read-out: hCYP11B1 Abs IC50
Description: (§6) 1. Experimental System: G-402 CYP11B2 or CYP11B1 High Expression Stable Transformants
(§7) The above-mentioned high-expression stable transformants were constructed based on human […] cell line G-402. The artificial lentiviruses were introduced into human CYP11B2 (NM_000498.3) and CYP11B1 (NM_000497.4), respectively.
(§8) Maintenance medium: McCoy's 5A (modified, #16600082, GIBCO)+10% FBS (GIBCO)+1 μg/mL puromycin (A1113803, GIBCO).
(§9) Resuscitation and seeding medium: McCoy's 5A (modified, #16600082, GIBCO)+10% FBS (GIBCO).
(§10) Reaction medium: DMEM/F12 (#11320033, GIBCO)+2.5% activated charcoal filtered FBS (S11695, R & D).
(§11) Seeding: Cells were cultured to a suitable state after resuscitation with maintenance medium, and 96-well flat plates were seeded with seeding medium according to 1×10^4/100 μL/well (unified cell volume).
(§12) Changing solution: The supernatant was aspirated and discarded after seeding overnight (>12 hours) and adherence. 100-150 μL/well serum-free medium was added, and after being aspirated. After aspiration, 50 μL/well reaction medium was added for later use.
(§13) Formulation: Compound was diluted with reaction medium containing 0.4 μM substrate (final experimental concentration is 0.2 μM):
CYP11B1 substrate: 11-deoxycortisol (11-deoxycortisol, S4775, selleckchem). The final reaction concentration was 0.2 μM.
(§14) Loading: The above compound dilutions were added to the cell plates at 50 μL/well. The background and control wells were set.
(§15) Treating and sampling: The cell plates were incubated in a cell incubator for 16 hours after loading, and then each cell plate was centrifuged at 450 g for 2 min. 75 μL supernatant was transferred to a collection plate and frozen at −80° C. for future use (or direct detection).
(§16) Detection: Homogeneous time-resolved fluorescence kit (Cisbio HTRF kit, Cat.64ALDPEG, Cat.62CRTPEG) was used to determine the concentration of aldosterone or cortisol in the supernatant.
(§17) Analysis: The absolute IC50 (Abs IC50) for each compound was calculated using a four parameter fit.

human CYP11B2 = human CYP11B2 (Homo sapiens (Human), UniProt P19099); assay: Inhibitory activity against hCYP11B2 in G-402 CYP11B2 high expression stable transformants (aldosterone HTRF); format: cell-based; conditions: for IC50: G-402 CYP11B2 cells, 0.2 μM 11-deoxycorticosterone, 16 hours, read-out: hCYP11B2 (AS) Abs IC50; for hCYP11B ½ Selectivity Fold: hCYP11B1 IC50 relative to hCYP11B2 IC50
Description: as §6, §7, §8, §9, §10, §11, §12, §13
CYP11B2 substrate: 11-deoxycorticosterone (11-deoxycorticosterone, S4243, selleckchem). The final reaction concentration was 0.2 μM
as §14, §15, §16, §17

CYP1A2 = CYP1A2 (Homo sapiens (Human), UniProt P05177); assay: In vitro inhibitory activity against common CYP450 enzymes: CYP1A2; format: in vitro ADME; conditions: human, microsomes, 10 min
Description: as §5

[1] = Pharmacokinetic test in cynomolgus monkeys (LC/MS); format: in vivo, cynomolgus monkeys (Macaca fascicularis); conditions: for Cmax / Tmax / half-life / AUC(0-t): both sexes, cynomolgus monkey, plasma; for AUC(0-t): read-out: AUC0-24 h
Excerpt: as §1, §2, §3, §4

CYP3A-M = CYP3A-M (Homo sapiens, UniProt P08684); assay: In vitro inhibitory activity against common CYP450 enzymes: CYP3A (midazolam); format: in vitro ADME; conditions: microsomes, substrate Midazolam
Description: as §5

CYP2C9 = CYP2C9 (Homo sapiens (Human), UniProt P11712); assay: In vitro inhibitory activity against common CYP450 enzymes: CYP2C9; format: in vitro ADME; conditions: microsomes, substrate Diclofenac
Description: as §5

cortisol levels = assay: Pharmacodynamic test in cynomolgus monkeys with ACTH stimulation: cortisol in plasma; format: in vivo, cynomolgus monkeys (Macaca fascicularis)
Excerpt: as §1, §2, §3, §4

CYP2D6 = CYP2D6 (Homo sapiens (Human), UniProt P10635); assay: In vitro inhibitory activity against common CYP450 enzymes: CYP2D6; format: in vitro ADME; conditions: microsomes, substrate Dextromethorphan
Description: as §5

CYP3A = CYP3A (Homo sapiens, UniProt P08684); assay: In vitro inhibitory activity against common CYP450 enzymes: CYP3A (midazolam); format: in vitro ADME; conditions: human, human liver microsomes, probe Midazolam, substrate Midazolam
Description: as §5

[2] = 0.5 mg/kg oral, 1 h (ACTH at +1 hour)
[3] = 0.05 mg/kg oral, 1 h (ACTH at +1 hour)

Sequence of human CYP11B2 (P19099 25-503): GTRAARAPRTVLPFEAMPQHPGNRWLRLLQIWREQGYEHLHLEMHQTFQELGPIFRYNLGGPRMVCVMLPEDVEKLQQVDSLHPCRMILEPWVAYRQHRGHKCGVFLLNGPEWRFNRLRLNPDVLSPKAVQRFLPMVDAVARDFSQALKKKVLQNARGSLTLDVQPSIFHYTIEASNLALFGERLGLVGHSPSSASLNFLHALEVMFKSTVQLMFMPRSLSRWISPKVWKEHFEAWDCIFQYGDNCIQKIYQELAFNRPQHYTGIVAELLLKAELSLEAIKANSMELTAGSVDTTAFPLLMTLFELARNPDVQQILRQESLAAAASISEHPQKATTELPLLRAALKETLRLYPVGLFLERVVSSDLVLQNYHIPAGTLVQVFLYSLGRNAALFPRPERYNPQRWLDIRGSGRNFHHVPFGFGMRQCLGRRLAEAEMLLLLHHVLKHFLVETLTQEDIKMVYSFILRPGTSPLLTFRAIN
Sequence of CYP2C19 (P33261 whole entry): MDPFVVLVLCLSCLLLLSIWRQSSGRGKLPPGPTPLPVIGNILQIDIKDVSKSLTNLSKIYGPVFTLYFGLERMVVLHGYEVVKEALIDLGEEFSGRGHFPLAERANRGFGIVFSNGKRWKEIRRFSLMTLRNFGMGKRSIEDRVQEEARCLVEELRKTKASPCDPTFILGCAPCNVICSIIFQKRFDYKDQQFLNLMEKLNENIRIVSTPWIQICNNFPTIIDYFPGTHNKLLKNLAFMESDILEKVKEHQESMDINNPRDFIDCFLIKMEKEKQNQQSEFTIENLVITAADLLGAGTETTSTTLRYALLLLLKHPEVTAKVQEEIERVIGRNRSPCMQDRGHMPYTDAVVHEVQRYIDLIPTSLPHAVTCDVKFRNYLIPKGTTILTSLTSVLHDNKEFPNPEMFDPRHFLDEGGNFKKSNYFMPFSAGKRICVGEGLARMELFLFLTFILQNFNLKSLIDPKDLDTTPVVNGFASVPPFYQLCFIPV
Sequence of CYP2C9 (P11712 whole entry): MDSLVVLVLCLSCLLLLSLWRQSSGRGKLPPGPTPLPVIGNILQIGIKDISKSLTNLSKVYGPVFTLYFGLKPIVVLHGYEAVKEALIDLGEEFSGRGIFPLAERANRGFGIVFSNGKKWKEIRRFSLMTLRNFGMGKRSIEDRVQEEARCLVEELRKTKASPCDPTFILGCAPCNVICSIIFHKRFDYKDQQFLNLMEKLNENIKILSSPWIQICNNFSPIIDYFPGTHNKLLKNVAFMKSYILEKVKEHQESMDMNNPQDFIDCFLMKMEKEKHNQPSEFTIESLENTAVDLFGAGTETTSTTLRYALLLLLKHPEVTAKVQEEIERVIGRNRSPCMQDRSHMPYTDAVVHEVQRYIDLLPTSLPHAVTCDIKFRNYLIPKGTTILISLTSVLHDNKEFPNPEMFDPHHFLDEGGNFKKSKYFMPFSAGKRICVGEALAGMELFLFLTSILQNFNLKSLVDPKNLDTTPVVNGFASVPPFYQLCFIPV
Sequence of human CYP11B1 (P15538 25-503): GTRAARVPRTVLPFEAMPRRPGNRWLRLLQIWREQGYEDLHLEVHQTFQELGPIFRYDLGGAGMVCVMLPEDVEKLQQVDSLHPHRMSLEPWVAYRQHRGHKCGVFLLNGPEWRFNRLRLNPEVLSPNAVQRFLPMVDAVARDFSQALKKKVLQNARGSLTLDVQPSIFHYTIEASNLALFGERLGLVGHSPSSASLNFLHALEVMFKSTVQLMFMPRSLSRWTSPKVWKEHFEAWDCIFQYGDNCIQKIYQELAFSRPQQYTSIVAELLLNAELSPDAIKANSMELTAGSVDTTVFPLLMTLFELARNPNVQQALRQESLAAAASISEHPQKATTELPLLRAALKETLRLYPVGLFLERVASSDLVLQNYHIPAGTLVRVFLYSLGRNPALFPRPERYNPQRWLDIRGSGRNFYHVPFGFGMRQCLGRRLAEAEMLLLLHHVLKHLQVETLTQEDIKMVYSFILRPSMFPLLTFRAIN
Sequence of CYP1A2 (P05177 whole entry): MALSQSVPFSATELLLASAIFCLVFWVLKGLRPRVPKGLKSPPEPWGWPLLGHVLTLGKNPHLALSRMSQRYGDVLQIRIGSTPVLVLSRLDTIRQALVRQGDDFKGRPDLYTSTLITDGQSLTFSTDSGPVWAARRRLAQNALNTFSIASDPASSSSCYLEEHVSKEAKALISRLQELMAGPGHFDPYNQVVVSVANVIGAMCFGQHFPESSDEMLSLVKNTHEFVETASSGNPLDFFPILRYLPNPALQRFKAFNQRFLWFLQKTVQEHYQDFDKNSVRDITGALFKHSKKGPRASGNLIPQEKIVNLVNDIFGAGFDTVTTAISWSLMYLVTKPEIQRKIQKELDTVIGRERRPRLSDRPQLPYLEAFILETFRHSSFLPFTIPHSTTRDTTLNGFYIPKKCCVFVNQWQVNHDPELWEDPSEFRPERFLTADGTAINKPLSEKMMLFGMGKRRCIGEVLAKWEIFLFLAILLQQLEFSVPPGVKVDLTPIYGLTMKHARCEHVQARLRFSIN
Sequence of CYP2D6 (P10635 whole entry): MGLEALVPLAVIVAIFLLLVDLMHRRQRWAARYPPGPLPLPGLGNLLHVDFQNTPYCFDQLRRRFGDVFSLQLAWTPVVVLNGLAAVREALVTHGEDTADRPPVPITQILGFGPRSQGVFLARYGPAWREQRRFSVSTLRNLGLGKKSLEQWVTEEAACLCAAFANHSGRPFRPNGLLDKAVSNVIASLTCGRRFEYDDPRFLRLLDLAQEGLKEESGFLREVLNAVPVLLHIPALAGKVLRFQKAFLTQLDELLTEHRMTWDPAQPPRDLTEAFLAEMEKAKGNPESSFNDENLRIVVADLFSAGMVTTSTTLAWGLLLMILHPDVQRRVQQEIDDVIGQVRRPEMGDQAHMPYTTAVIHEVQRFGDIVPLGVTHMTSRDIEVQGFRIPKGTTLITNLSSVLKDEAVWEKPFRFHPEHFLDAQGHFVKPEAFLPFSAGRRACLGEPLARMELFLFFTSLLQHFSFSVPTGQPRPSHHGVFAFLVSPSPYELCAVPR
Sequence of CYP3A-M (P08684 2-503 limits assumed): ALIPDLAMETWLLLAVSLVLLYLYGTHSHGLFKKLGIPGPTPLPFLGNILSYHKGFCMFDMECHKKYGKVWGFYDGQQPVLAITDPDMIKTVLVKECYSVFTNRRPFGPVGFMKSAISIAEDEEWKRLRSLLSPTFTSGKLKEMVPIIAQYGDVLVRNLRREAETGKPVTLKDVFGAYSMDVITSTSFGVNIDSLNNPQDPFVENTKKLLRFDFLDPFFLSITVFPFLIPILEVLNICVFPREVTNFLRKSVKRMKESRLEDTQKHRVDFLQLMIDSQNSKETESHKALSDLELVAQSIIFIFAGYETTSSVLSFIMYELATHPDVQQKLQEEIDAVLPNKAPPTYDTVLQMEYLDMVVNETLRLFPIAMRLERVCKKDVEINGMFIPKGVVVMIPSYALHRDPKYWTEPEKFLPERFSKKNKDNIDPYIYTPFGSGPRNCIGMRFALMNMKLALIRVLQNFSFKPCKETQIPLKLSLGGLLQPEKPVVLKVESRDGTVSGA
Sequence of CYP3A (P08684 2-503 limits assumed): as above

## CCC(=O)N[C@@H]1CCOc2c(-c3ccc4c(c3)CCC(=O)N4C)cncc21 [Example 1, (R)-N-(8-(1-methyl-2-oxo-1,2,3,4-tetrahydroquinolin-6-yl)-3,4-dihydro-2H-pyran[3,2-c]pyridin-4-yl)propanamide]
Aldosterone synthesis; 0.5 mg/kg oral, 0.5 h
  Aldosterone Concentration in Plasma: 859.25 pg/mL
Aldosterone synthesis; [2]
  Aldosterone Concentration in Plasma: 358.37 pg/mL
Aldosterone synthesis; 0.5 mg/kg oral, 2 h
  Aldosterone Concentration in Plasma: 122.85 pg/mL
Aldosterone synthesis; 0.5 mg/kg oral, 4 h
  Aldosterone Concentration in Plasma: 90.51 pg/mL
Aldosterone synthesis; 0.5 mg/kg oral, 6 h
  Aldosterone Concentration in Plasma: 90.39 pg/mL
Aldosterone synthesis; 0.5 mg/kg oral, 12 h
  Aldosterone Concentration in Plasma: 89.42 pg/mL
Aldosterone synthesis; 0.5 mg/kg oral, Pre-dose
  Aldosterone Concentration in Plasma: 222.84 pg/mL
CYP2C19
  IC50: > 50 µM
Human CYP11B1
  IC50: 4.21 µM
Human CYP11B2
  IC50: 0.0264 µM
  hCYP11B ½ Selectivity Fold: 159.64 Fold
CYP1A2
  IC50: > 50 µM
[1]; 0.5 mg/kg, 0.5mpk oral
  Cmax: 152 ng/mL
  Tmax: 2 h
  half-life: 9.09 h
  AUC(0-t): 1960 ng·h/mL
CYP3A-M
  IC50: > 50 µM
CYP2C9
  IC50: > 50 µM
Cortisol levels; 0.5 mg/kg oral, 0.5 h
  Cortisol Concentration in Plasma: 1000.0 pg/mL
Cortisol levels; [2]
  Cortisol Concentration in Plasma: 876.5 pg/mL
Cortisol levels; 0.5 mg/kg oral, 2 h
  Cortisol Concentration in Plasma: 1180.0 pg/mL
Cortisol levels; 0.5 mg/kg oral, 4 h
  Cortisol Concentration in Plasma: 602.7 pg/mL
Cortisol levels; 0.5 mg/kg oral, 6 h
  Cortisol Concentration in Plasma: 476.3 pg/mL
Cortisol levels; 0.5 mg/kg oral, 12 h
  Cortisol Concentration in Plasma: 377.3 pg/mL
Cortisol levels; 0.5 mg/kg oral, Pre-dose
  Cortisol Concentration in Plasma: 699.3 pg/mL
CYP2D6
  IC50: > 50 µM

## CCC(=O)N[C@@H]1CCOc2c(-c3cc4c(cc3F)N(C)C(=O)CC4)cncc21 [Example 8, (R)-N-(8-(7-Fluoro-1-methyl-2-oxo-1,2,3,4-tetrahydroquinolin-6-yl)-3,4-dihydro-2H-pyran[3,2-c]pyridin-4-yl)propanamide]
Aldosterone synthesis; 0.05 mg/kg oral
  effect on aldosterone synthesis (in words): significantly inhibited aldosterone synthesis
Aldosterone synthesis; 0.05 mg/kg oral, 0.5 h
  Aldosterone Concentration in Plasma: 557.64 pg/mL
Aldosterone synthesis; [3]
  Aldosterone Concentration in Plasma: 350.13 pg/mL
Aldosterone synthesis; 0.05 mg/kg oral, 2 h
  Aldosterone Concentration in Plasma: 139.86 pg/mL
Aldosterone synthesis; 0.05 mg/kg oral, 4 h
  Aldosterone Concentration in Plasma: 81.71 pg/mL
Aldosterone synthesis; 0.05 mg/kg oral, 6 h
  Aldosterone Concentration in Plasma: 84.08 pg/mL
Aldosterone synthesis; 0.05 mg/kg oral, 12 h
  Aldosterone Concentration in Plasma: 91.38 pg/mL
Aldosterone synthesis; 0.05 mg/kg oral, Pre-dose
  Aldosterone Concentration in Plasma: 421.96 pg/mL
CYP2C19
  IC50: > 50 µM
Human CYP11B1
  IC50: 4.6 µM
Human CYP11B2
  IC50: 0.0231 µM
  hCYP11B ½ Selectivity Fold: 199 Fold
Human CYP11B2; hCYP11B2 versus hCYP11B1, compared with reference Baxdrostat
  selectivity (in words): better selectivity
CYP1A2
  IC50: > 50 µM
[1]; 0.05 mg/kg, 0.05mpk oral
  Cmax: 22.7 ng/mL
  Tmax: 2 h
  half-life: 12.7 h
  AUC(0-t): 332 ng·h/mL
[1]; same dose
  Cmax and AUC relative to the reference Baxdrostat: three times as high
[1]; same dose (0.05mpk)
  Cmax and AUC values relative to the compound of Example 2: twice as high
CYP3A
  IC50 at 10 min: > 50 µM
CYP2C9
  IC50: > 50 µM
Cortisol levels; 0.05 mg/kg oral, 0.5 h
  Cortisol Concentration in Plasma: 1590.4 pg/mL
Cortisol levels; [3]
  Cortisol Concentration in Plasma: 1335.6 pg/mL
Cortisol levels; 0.05 mg/kg oral, 2 h
  Cortisol Concentration in Plasma: 1990.5 pg/mL
Cortisol levels; 0.05 mg/kg oral, 4 h
  Cortisol Concentration in Plasma: 818.4 pg/mL
Cortisol levels; 0.05 mg/kg oral, 6 h
  Cortisol Concentration in Plasma: 410.8 pg/mL
Cortisol levels; 0.05 mg/kg oral, 12 h
  Cortisol Concentration in Plasma: 487.5 pg/mL
Cortisol levels; 0.05 mg/kg oral, Pre-dose
  Cortisol Concentration in Plasma: 831.6 pg/mL
CYP2D6
  IC50: > 50 µM

Reference: patent US20250361240A1, “PYRANOPYRIDINE COMPOUND, PROCESS FOR PREPARING THE SAME, PHARMACEUTICAL COMPOSITION AND USE THEREOF” (Zhejiang Yangli Pharmaceutical Technology Co., Ltd., priority 2024, published 2025)
